Results as given in paper PMC8110578, “Phenylethynylbenzyl-modified biguanides inhibit pancreatic cancer tumor growth” (Scientific Reports, 2021).
pIC50: −log10 of the molar value.

System: HPNE cells (normal immortalized pancreatic epithelial cells)
Experiment: Growth assay (crystal violet), HPNE cells
Format: cell-based, human
Conditions: 3 days treatment, crystal violet retention assay
Method: . The IC50 of most of the synthetic biguanides in HPNE cells was higher than for cancer cells (Supplementary Table S12).
(§1) All chemicals were purchased from Aldrich Chemicals in their highest purity and used without further purification. Deuterated dimethylsulfoxide (DMSO-d^6) and deuterated chloroform (CDCl3) were purchased from CDN Isotopes. NMR spectra were recorded on Bruker advance 400 and 100 spectrometers. Coupling constants are given in hertz (Hz) and chemical shifts are given in parts per million (ppm, δ) measured relative to the residual solvent (the multiplicity of the signals are given as s: singlet, d: doublet, t: triplet, and m: multiplet). High-resolution mass spectra (HRMS) were recorded on a TSQ Quantum Ultra (Thermo Scientific) triple quadrupole with accurate mass option instrument (Université de Montréal Mass Spectrometry Facility). MS experiences were performed using an UltrafleXtreme MALDI TOF/TOF mass spectrometer equipped with a SmartBeam II Nd:Yag/355 nm laser operating at 1 kHz and providing a laser focus down to 20 μm in diameter (Bruker Daltonics, Billerica, MA). The data acquisition for MS was performed in positive ion mode using the linear geometry with flexControl 3.4 (Bruker Daltonics, Billerica, MA). Acceleration voltage was set to + 25 kV and all other instrumental parameters (delayed extraction parameters, source voltages, detector gain, laser energy, etc.) were optimized for maximum S/N for the drug compounds. L-α-Phosphatidylcholine was purchased from Avanti Polar Lipids. Transport and depolarization studies as well as absorbance measurements were performed on a Varian Cary Eclipse fluorescence spectrophotometer. The hemolysis assays were performed on a Fluostar Optima plate reader. Single crystals of C18H18F3N5O3S were obtained from chloroform. A suitable crystal was selected and analysed on a Bruker Venture Metaljet diffractometer. Crystal violet retention assay was used for cell growth assays and IC50 were determined using Prism (GraphPad). NAD/NADH quantitation colorimetric kit (#K337-100) from Biovision was used according to manufacturer’s instructions. ECAR (extracellular acidification rate) and OCR of KP4 cells (oxygen consumption rate) were measured on a Seahorse XF-24 (Agilent).
(§2) Experimental. KP4 (Riken RCB1005) and PSN1 (ATCC: CRM-CRL-3211), were cultured in Dulbecco's modified Eagle's medium (DMEM) (Wisent, St-Bruno, QC) supplemented with 10 % of fetal bovine serum (FBS) (Wisent). HPNE hTERT (ATCC: CRL1423) were cultured in a mix of 75% DMEM without glucose (Sigma Cat#. D-5030) with additional 2 mM L-glutamine and 1.5 g/L sodium bicarbonate, 25% Medium M3 Base (Incell Corp. Cat# M300F- 500), fetal bovine serum 5% (wisent 10 ng/ml human recombinant EGF (Sigma-Aldrich), 5.5 mM D-glucose (Sigma-Aldrich), 750 ng/ml puromycin (Sigma-Aldrich). For dose-response assays, cells were seeded in 96 well plates (company). After 24 h, treatments were applied and cells were grown for 3 more days. Crystal violet retention assay used for cell growth assays were described previously^2. The data is expressed as relative absorbance of crystal violet extracted from the cells and diluted in 10 % acetic acid. IC50 were determined using Prism (GraphPad). Tumor spheres were grew according to Ferbeyre et al^3.

| Compound | pIC50 |
| --- | --- |
| N=C(N)NC(=N)Nc1ccc(C#Cc2ccccc2)cc1 [3b, 4-(phenylethynylphenyl)biguanidium] | 4.22 |
| N=C(N)NC(=N)NCc1ccc(CCc2ccccc2)cc1 [2a, 4-(phenylethyl)benzylbiguanide] | 4.63 |
| N=C(N)NC(=N)NCc1ccc(C#Cc2ccccc2)cc1 [1c, 4-(phenylethynyl)benzylbiguanide] | 4.55 |
| N=C(N)NC(=N)Nc1ccc(CCc2ccccc2)cc1 [4b, 4-(phenylethylphenyl)biguanidium] | 4.32 |
| N=C(N)NC(=N)Nc1ccc(C#Cc2ccccc2)cc1 [3a, 4-(phenylethynylphenyl)biguanidium] | 4.70 |
| N=C(N)NC(=N)NCc1ccc(CCc2ccccc2)cc1 [2b, 4-(phenylethyl)benzylbiguanide] | 4.51 |
| N=C(N)NC(=N)Nc1ccc(C#Cc2ccccc2)cc1 [3c, 4-(phenylethynylphenyl)biguanidium] | 4.28 |

Same assay, conditions: Homo sapiens, HPNE, 72 h, 3 days treatment, crystal violet retention assay

| Compound | pIC50 |
| --- | --- |
| N=C(N)NC(=N)NCc1ccc(CCc2ccccc2)cc1 [2c, 4-(phenylethyl)benzylbiguanide] | 4.43 |
| N=C(N)NC(=N)Nc1ccc(CCc2ccccc2)cc1 [4a, 4-(phenylethylphenyl)biguanidium] | 4.49 |

System: red blood cells
Experiment: Hemolytic activity of PEB-biguanidium salts
Format: cell-based
Conditions: red blood cells 2% v/v in PBS, 1 h at 37 °C
Method: The toxicity of PEB-Biguanidiums salts was estimated through their hemolytic activity by incubating red blood cells (RBC) with the compounds for 1 h (See Supplementary Table S13 and Supplementary Fig. S29).
Experimental. Red blood cells in Alsever’s solution were centrifuged for 10 min at 300g, washed 3 times with PBS buffer, and resuspended in PBS at 2% v/v. To each well of a 96-well plate, 195 µL of red blood cell solution and 5 µL of biguanidium salt in DMSO were added, and the plate was incubated with light agitation for 1 h at 37 °C. The plate was then centrifuged for 10 min at 300g, and 50 µL of the supernatant solution of each well was transferred to another plate. Absorbance was measured at λ = 405 nm. Each measurement was performed in triplicate in three different experiments.

| Compound | HC 10% (µM) | HC 10% (µg/ml) [µg/mL] |
| --- | --- | --- |
| N=C(N)NC(=N)Nc1ccc(C#Cc2ccccc2)cc1 [3b, 4-(phenylethynylphenyl)biguanidium] | > 234 | > 100 |
| N=C(N)NC(=N)NCc1ccc(CCc2ccccc2)cc1 [2a, 4-(phenylethyl)benzylbiguanide] | > 173 | > 100 |
| N=C(N)NC(=N)NCc1ccc(CCc2ccccc2)cc1 [2c, 4-(phenylethyl)benzylbiguanide] | 151 | 50 |
| N=C(N)NC(=N)NCc1ccc(C#Cc2ccccc2)cc1 [1c, 4-(phenylethynyl)benzylbiguanide] | > 305 | > 100 |
| N=C(N)NC(=N)Nc1ccc(CCc2ccccc2)cc1 [4b, 4-(phenylethylphenyl)biguanidium] | > 232 | > 100 |
| N=C(N)NC(=N)Nc1ccc(CCc2ccccc2)cc1 [4c, 4-(phenylethylphenyl)biguanidium] | > 315 | > 100 |
| N=C(N)NC(=N)Nc1ccc(C#Cc2ccccc2)cc1 [3a, 4-(phenylethynylphenyl)biguanidium] | > 179 | > 100 |
| N=C(N)NC(=N)Nc1ccc(CCc2ccccc2)cc1 [4a, 4-(phenylethylphenyl)biguanidium] | > 178 | > 100 |
| N=C(N)NC(=N)NCc1ccc(CCc2ccccc2)cc1 [2b, 4-(phenylethyl)benzylbiguanide] | > 225 | > 100 |
| N=C(N)NC(=N)Nc1ccc(C#Cc2ccccc2)cc1 [3c, 4-(phenylethynylphenyl)biguanidium] | > 319 | > 100 |

System: red blood cells
Experiment: not given
Parameters: method as in PMID 23143143, doi:10.1039/C3md00293d
Conditions: cited from earlier work

| Compound | HC50 (concentration that kills 50% of red blood cells) [mM] |
| --- | --- |
| C[n+]1cn(Cc2ccc(C#Cc3ccccc3)cc2)c2ccccc21 [A.3] | 150 |
| C(#Cc1ccc(Cn2c[n+](Cc3ccccc3)c3ccccc32)cc1)c1ccccc1 [A.2] | 1 |
| C(#Cc1ccc(Cn2c[n+](Cc3ccc(C#Cc4ccccc4)cc3)c3ccccc32)cc1)c1ccccc1 [A.1] | 0.15 |

System: KP4 cells
Experiment: Growth assay (crystal violet), KP4 cells
Format: cell-based, human
Conditions: Homo sapiens, KP-4, 72 h, KP4 cells, 3 days treatment, crystal violet retention assay; read-out: IC50 KP4
Method: as §1, §2

| Compound | pIC50 |
| --- | --- |
| N=C(N)NC(=N)NCc1ccc(CCc2ccccc2)cc1 [2c, 4-(phenylethyl)benzylbiguanide] | 4.80 |
| N=C(N)NC(=N)Nc1ccc(CCc2ccccc2)cc1 [4a, 4-(phenylethylphenyl)biguanidium] | 4.91 |

Same assay, conditions: KP4 cells, 3 days treatment, crystal violet retention assay; read-out: IC50 KP4

| Compound | pIC50 |
| --- | --- |
| N=C(N)NC(=N)Nc1ccc(C#Cc2ccccc2)cc1 [3b, 4-(phenylethynylphenyl)biguanidium] | 4.23 |
| N=C(N)NC(=N)NCc1ccc(CCc2ccccc2)cc1 [2a, 4-(phenylethyl)benzylbiguanide] | 4.68 |
| N=C(N)NC(=N)NCc1ccc(C#Cc2ccccc2)cc1 [1c, 4-(phenylethynyl)benzylbiguanide] | 5.04 |
| N=C(N)NC(=N)Nc1ccc(CCc2ccccc2)cc1 [4b, 4-(phenylethylphenyl)biguanidium] | 4.86 |
| N=C(N)NC(=N)Nc1ccc(CCc2ccccc2)cc1 [4c, 4-(phenylethylphenyl)biguanidium] | 4.77 |
| N=C(N)NC(=N)Nc1ccc(C#Cc2ccccc2)cc1 [3a, 4-(phenylethynylphenyl)biguanidium] | 4.77 |
| N=C(N)NC(=N)NCc1ccc(CCc2ccccc2)cc1 [2b, 4-(phenylethyl)benzylbiguanide] | 4.76 |
| N=C(N)NC(=N)Nc1ccc(C#Cc2ccccc2)cc1 [3c, 4-(phenylethynylphenyl)biguanidium] | 4.41 |
